Values joined by “and” are separate entries in the source; they are usually repeats but may differ in a detail not shown here. Identical values can stand only once. Starred links: 1 amine or outer side, 2 acyl side, 3 side chain; linkers in the order of their positions; H or OH if unused. Non-standard residues stand in square brackets, D forms with d. Residues, ends and D or L forms follow the SMILES beside them. Lys(thiomyristoyl) = CCCCCCCCCCCCCC(=S)NCCCC[C@H](N)C(=O)O; X1 = CCCC(=S)NCCCC[C@H](N[*:1])C(=O)[*:2]; Abu = CC[C@H](N)C(=O)O
Columns and labels:
SIRT2 [1] = target: T1, SIRT2 (Homo sapiens, UniProt Q8IXJ6); assay: Continuous fluorogenic sirtuin inhibition assay, SIRT2 (tBuK peptides, TB); format: biochemical; details: for IC50: 0.25 µM SIRT2, 1 mM NAD+, 5 µM fluorogenic substrate, 15 min preincubation, n = 2, read-out: IC50; for activity at 0.0064 µM / %Activity, SIRT2 / activity at 0.032 µM / activity at 0.5 µM / activity at 1 µM / activity at 2 µM / activity at 4 µM / activity at 50 µM: single trials
T1 sequence (Q8IXJ6 1-389): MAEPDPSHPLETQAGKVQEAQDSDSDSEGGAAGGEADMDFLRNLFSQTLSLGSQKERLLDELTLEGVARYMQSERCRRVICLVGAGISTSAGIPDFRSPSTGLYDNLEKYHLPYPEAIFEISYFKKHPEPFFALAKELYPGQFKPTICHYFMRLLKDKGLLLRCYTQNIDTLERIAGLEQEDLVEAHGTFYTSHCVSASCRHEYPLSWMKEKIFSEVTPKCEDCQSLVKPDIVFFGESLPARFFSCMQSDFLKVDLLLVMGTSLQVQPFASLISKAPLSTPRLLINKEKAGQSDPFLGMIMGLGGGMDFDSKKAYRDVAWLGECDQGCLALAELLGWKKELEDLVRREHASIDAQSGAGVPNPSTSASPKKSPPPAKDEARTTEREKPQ
Procedure: The continuous assay for comparing isoform specificity of S2P04 was performed using the universal fluorogenic sirtuin substrate described by Schuster et al.[41]. Briefly, the inhibition reactions were performed in 50-µL volumes at 37 °C in black, half-area, 96-well plates. The sirtuin enzyme (0.25 µM) was preincubated with different concentrations of the peptide S2P04 (0.0064–50 µM for SIRT1 and SIRT2, 0.5–100 µM for SIRT3) or TB (0.16–150 µM for SIRT1–SIRT3), and 1 mM NAD^+ in assay buffer (20 mM Tris, pH 7.8, 150 mM NaCl, 5 mM MgCl2, and 1 mM DTT) for 15 min. Following incubation, the reaction started with the addition of the fluorogenic substrate (5 µM), and product formation was monitored by measuring the fluorescence intensity every 20 s for 5 min (SIRT2) or 30 min (SIRT1 and SIRT3) in a BioTek Synergy H1 microplate reader at λex = 320 nm and λem = 408 nm (gain = 130 and read height = 7 mm). Initial rates of product formation were determined by a linear regression of the plot of fluorescence intensity vs. time and normalized relative to 0% (max inhibitor) and 100% (no inhibitor) controls. The assay was repeated to determine the IC50 values of all BuK peptides for SIRT2. IC50 values were determined by nonlinear regression of the plot of the normalized initial rate vs. inhibitor concentration using GraphPad Prism. The determined IC50 values are provided in Supplementary Table 2, and inhibition curves can be seen in Supplementary Fig. 20.

SIRT2 [2] = target: T1, SIRT2; assay: SIRT2 inhibition assay for thiomyristoyl peptides; format: biochemical; details: for IC50: 10 nM SIRT2, 15 min preincubation, 5 µM substrate, n = 2
Procedure: Assays were performed in 40-µL volumes at 37 °C in black, 384-well plates. […] Following incubation, the reaction started with the addition of the fluorogenic substrate (5 µM), and product formation was monitored by measuring the fluorescence intensity every 20 s for 5 min (SIRT2) in a BioTek Synergy H1 microplate reader at λex = 320 nm and λem = 408 nm (gain = 130 and read height = 7 mm). Initial rates were determined using the plot of fluorescence vs. time for linear portions of each curve. IC50 values were then determined using GraphPad Prism to fit a nonlinear regression to the normalized rates vs. inhibitor concentration.

SMILES	IC50 (SIRT2 [1]) [nM]	activity at 0.0064 µM (SIRT2 [1]; inhibitor 0.0064 µM) [%]	%Activity, SIRT2 (SIRT2 [1]; inhibitor 0.0064 µM, 0.0064 µM)	activity at 0.032 µM (SIRT2 [1]; inhibitor 0.032 µM) [%]	%Activity, SIRT2 (SIRT2 [1]; inhibitor 0.032 µM, 0.032 µM) [%]	activity at 0.5 µM (SIRT2 [1]; inhibitor 0.5 µM) [%]	%Activity, SIRT2 (SIRT2 [1]; inhibitor 0.5 µM, 0.5 µM)	activity at 1 µM (SIRT2 [1]; inhibitor 1 µM) [%]	%Activity, SIRT2 (SIRT2 [1]; inhibitor 1 µM, 1 µM)	activity at 2 µM (SIRT2 [1]; inhibitor 2 µM) [%]	%Activity, SIRT2 (SIRT2 [1]; inhibitor 2 µM, 2 µM) [%]	%Activity, SIRT2 (SIRT2 [1]; inhibitor 4 µM, 4 µM)	%Activity, SIRT2 (SIRT2 [1]; inhibitor 50 µM, 50 µM)	further results
CCCC(=S)NCCCC[C@H](NC(=O)[C@@H](NC(=O)[C@@H](NC(=O)[C@H](CS)NC(C)=O)[C@@H](C)O)C(C)C)C(=O)N[C@H](C(N)=O)[C@@H](C)CC [Ac-S2P04-5-tBu] (Ac-CTV[X1]I-NH2)	191 ± 9	104	111.5%	89.7	105.63	12.5	12.664%	5.39	6.0395%	3.09	4.8945	3.4595%	-0.7428% and 1.396%	activity at 4 µM (SIRT2 [1]; inhibitor 4 µM): 3.78%
CCCC(=S)NCCCC[C@H](NC(=O)[C@@H](NC(=O)[C@@H](NC(=O)[C@@H](N)CS)[C@@H](C)O)C(C)C)C(=O)N[C@H](C(=O)N[C@@H](CO)C(=O)N[C@@H](CC(C)C)C(N)=O)[C@@H](C)O [S2P03-tBuK] (H-CTV[X1]TSL-NH2)	68 ± 5	98.4	108.62%	83.5	92.999	–	2.6542% and 5.9955%	–	1.6503% and 4.1115%	1.28	2.2764	-0.1595% and 1.9208%	2.8758% and -0.3176%	–
CCCC(=S)NCCCC[C@H](NC(=O)[C@@H](NC(=O)[C@@H](NC(=O)[C@@H](N)CC)[C@@H](C)O)C(C)C)C(=O)N[C@H](C(N)=O)[C@@H](C)CC [S2P04(Abu)-5-tBuK] (H-[Abu]TV[X1]I-NH2)	119 ± 3	–	–	–	–	10	–	6.61	–	4.66	–	–	–	%Activity, SIRT2 (SIRT2 [1]; inhibitor 0.0064 µM, listed as S2P04-5-Abu-tBu, 0.0064 µM): 97.908% and 63.307%; %Activity, SIRT2 (SIRT2 [1]; inhibitor 0.032 µM, listed as S2P04-5-Abu-tBu, 0.032 µM): 79.071% and 55.539%; %Activity, SIRT2 (SIRT2 [1]; inhibitor 0.5 µM, listed as S2P04-5-Abu-tBu, 0.5 µM): 11.559%; %Activity, SIRT2 (SIRT2 [1]; inhibitor 1 µM, listed as S2P04-5-Abu-tBu, 1 µM): 4.9054%; %Activity, SIRT2 (SIRT2 [1]; inhibitor 2 µM, listed as S2P04-5-Abu-tBu, 2 µM): 4.1695%; activity at 4 µM (SIRT2 [1]; inhibitor 4 µM): 3.95%; %Activity, SIRT2 (SIRT2 [1]; inhibitor 4 µM, listed as S2P04-5-Abu-tBu, 4 µM): 3.2715%; activity at 50 µM (SIRT2 [1]; inhibitor 50 µM): 1.5%; %Activity, SIRT2 (SIRT2 [1]; inhibitor 50 µM, listed as S2P04-5-Abu-tBu, 50 µM): 1.1019%
CCCCCCCCCCCCCC(=S)NCCCC[C@H](NC(=O)[C@@H](NC(=O)[C@@H](NC(=O)[C@@H](N)CC)[C@@H](C)O)C(C)C)C(=O)N[C@H](C(N)=O)[C@@H](C)CC [S2P04(Abu)-5-tMyK] (H-[Abu]TV[Lys(thiomyristoyl)]I-NH2)	–	–	–	–	–	–	–	–	–	–	–	–	–	IC50 (SIRT2 [2]): 18 ± 6 nM; activity at 0.000460773 µM (SIRT2 [2]; inhibitor 0.460773 nM): 83.3%; %Activity, SIRT2 (SIRT2 [2]; inhibitor 0.460773 nM, listed as S2P04 (Abu)-tMyK, 0.000460773 µM): 75.1766%; activity at 0.000921546 µM (SIRT2 [2]; inhibitor 0.921546 nM): 84.4%; %Activity, SIRT2 (SIRT2 [2]; inhibitor 0.921546 nM, listed as S2P04 (Abu)-tMyK, 0.000921546 µM): 83.3137%; activity at 0.00184309 µM (SIRT2 [2]; inhibitor 1.84309 nM): 92.7%; %Activity, SIRT2 (SIRT2 [2]; inhibitor 1.84309 nM, listed as S2P04 (Abu)-tMyK, 0.00184309 µM): 107.334%; activity at 0.00368618 µM (SIRT2 [2]; inhibitor 3.68618 nM): 92.3%; %Activity, SIRT2 (SIRT2 [2]; inhibitor 3.68618 nM, listed as S2P04 (Abu)-tMyK, 0.00368618 µM): 86.7202%; %Activity, SIRT2 (SIRT2 [2]; inhibitor 7.37237 nM, listed as S2P04 (Abu)-tMyK, 0.00737237 µM): 106.229% and 65.8212%; activity at 0.0147447 µM (SIRT2 [2]; inhibitor 14.7447 nM): 70.6%; %Activity, SIRT2 (SIRT2 [2]; inhibitor 14.7447 nM, listed as S2P04 (Abu)-tMyK, 0.0147447 µM): 50.6621%; activity at 0.058979 µM (SIRT2 [2]; inhibitor 58.979 nM): 27.7%; %Activity, SIRT2 (SIRT2 [2]; inhibitor 58.979 nM, listed as S2P04 (Abu)-tMyK, 0.058979 µM): 13.9723%; activity at 0.117958 µM (SIRT2 [2]; inhibitor 117.958 nM): 20.7%; %Activity, SIRT2 (SIRT2 [2]; inhibitor 117.958 nM, listed as S2P04 (Abu)-tMyK, 0.117958 µM): 15.5064%; %Activity, SIRT2 (SIRT2 [2]; inhibitor 235.916 nM, listed as S2P04 (Abu)-tMyK, 0.235916 µM): 2.564% and 11.5055%; %Activity, SIRT2 (SIRT2 [2]; inhibitor 471.832 nM, listed as S2P04 (Abu)-tMyK, 0.471832 µM): 2.292% and -2.292%; %Activity, SIRT2 (SIRT2 [2]; inhibitor 943.663 nM, listed as S2P04 (Abu)-tMyK, 0.943663 µM): 6.074% and 14.5226%
CCCC(=S)NCCCC[C@H](NC(=O)[C@@H](NC(=O)[C@@H](NC(=O)[C@@H](N)CS)[C@@H](C)O)C(C)C)C(=O)N[C@H](C(N)=O)[C@@H](C)CC [S2P04-5-tBuK] (H-CTV[X1]I-NH2)	136 ± 29	101	119.97%	87.2	96.038	8.86	9.5933%	6.24	6.7307%	5	6.0395	-0.2382% and 0.3719%	0.8865%	activity at 50 µM (SIRT2 [1]; inhibitor 50 µM): 1.19%
CCCCCCCCCCCCCC(=S)NCCCC[C@H](NC(=O)[C@@H](NC(=O)[C@@H](NC(=O)[C@H](CS)NC(=O)[C@@H](N)[C@@H](C)O)[C@@H](C)O)C(C)C)C(=O)N[C@H](C(=O)NCC(N)=O)[C@@H](C)CC [S2P04-tMyK] (H-TCTV[Lys(thiomyristoyl)]IG-NH2)	–	–	–	–	–	–	–	–	–	–	–	–	–	IC50 (SIRT2 [2]): 13 ± 4 nM; activity at 0.000466362 µM (SIRT2 [2]; inhibitor 0.466362 nM): 95.3%; %Activity, SIRT2 (SIRT2 [2]; inhibitor 0.466362 nM, 0.000466362 µM): 104.732%; activity at 0.000932724 µM (SIRT2 [2]; inhibitor 0.932724 nM): 97.9%; %Activity, SIRT2 (SIRT2 [2]; inhibitor 0.932724 nM, 0.000932724 µM): 100.382%; %Activity, SIRT2 (SIRT2 [2]; inhibitor 1.86545 nM, 0.00186545 µM): 87.5221% and 108.94%; %Activity, SIRT2 (SIRT2 [2]; inhibitor 3.7309 nM, 0.0037309 µM): 78.4292% and 108.338%; activity at 0.0074618 µM (SIRT2 [2]; inhibitor 7.4618 nM): 77.8%; %Activity, SIRT2 (SIRT2 [2]; inhibitor 7.4618 nM, 0.0074618 µM): 66.6253%; %Activity, SIRT2 (SIRT2 [2]; inhibitor 14.9236 nM, 0.0149236 µM): 48.6419% and 27.9749%; activity at 0.0596944 µM (SIRT2 [2]; inhibitor 59.6944 nM): 11%; %Activity, SIRT2 (SIRT2 [2]; inhibitor 59.6944 nM, 0.0596944 µM): 20.9299%; %Activity, SIRT2 (SIRT2 [2]; inhibitor 955.11 nM, 0.95511 µM): -1.089% and 1.089%
CCCC(=S)NCCCC[C@H](NC(=O)[C@H](Cc1ccccc1)NC(=O)[C@@H](NC(=O)[C@@H](N)CS)[C@@H](C)O)C(=O)N[C@H](C(=O)N1CCC[C@H]1C(=O)N[C@H](C(N)=O)[C@@H](C)O)C(C)C [S2P07-tBuK] (H-CTF[X1]VPT-NH2)	101 ± 13	–	98.946% and 68.389%	87.5	67.907	9.45	9.1144%	6.71	5.6905%	4.93	4.4406	0.3859% and 2.3975%	0.4825% and -0.01509%	–

Source: PMC7070036, “An amber obligate active site-directed ligand evolution technique for phage display” (Nature Communications, 2020)
